Results published in ChEMBL document CHEMBL6103618, “Discovery of Novel Oxazolo[4,3-f]purine Derivatives as Antitumor Agents through PPIA Interaction” (J Med Chem, 2025).
Calls of active or inactive are those of the source. The rule behind the calls is not given here.

Tests used:
[1] = Toxicity in BALB/c mouse implanted with mouse CT26 cells assessed as abnormality in lung at 15 to 45 mg/kg, ip qd treated for 14 days by H and E staining based analysis; assay type: organism-based; conditions: in vivo, 336 h, dose 15-45 mg/kg, time 14 day
[2] = Stability in mouse plasma assessed as half life measured upto 24 hrs by HPLC analysis; assay type: ADME, cell-free
HCT-116 [3] = test: Induction of apoptosis in human HCT-116 cells assessed as early apoptotic cells at 0.6 uM incubated for 48 hrs by Annexin V-FITC/PI staining based flow cytometry (reference value: 1.12 %); assay type: functional
HCT-116 [4] = test: Induction of cell cycle arrest in human HCT-116 cells assessed as accumulation at G2 phase at 0.6 uM incubated for 48 hrs by PI staining based flow cytometry (reference value: 6.08 %); assay type: functional
HCT-116 [5] = test: Induction of apoptosis in human HCT-116 cells assessed as late apoptotic cells at 0.3 uM incubated for 48 hrs by Annexin V-FITC/PI staining based flow cytometry (reference value: 1.55 %); assay type: functional
HCT-116 [6] = test: Inhibition of colony formation in human HCT-116 cells at 1.2 uM in presence of NAC by crystal violet staining based analysis; assay type: functional, cell-based
CT26 [7] = test: Antitumor activity against mouse CT26 cells implanted in BALB/c mouse assessed as decrease in Ki67 level at 15 to 45 mg/kg, ip qd treated for 14 days by IHC analysis; assay type: functional, organism-based; conditions: dose 15-45 mg/kg, time 14.0 day
HCT-116 [8] = test: Effect on TK1 expression in human HCT-116 cells upto 6 uM incubated for 30 mins followed by pronase addition measured after 30 mins by DARTS assay; assay type: functional, cell-based
[9] = Toxicity in BALB/c mouse implanted with mouse CT26 cells assessed as abnormality in heart at 15 to 45 mg/kg, ip qd treated for 14 days by H and E staining based analysis; assay type: organism-based; conditions: in vivo, 336 h, dose 15-45 mg/kg, time 14 day
[10] = Toxicity in BALB/c mouse implanted with mouse CT26 cells assessed as injury in liver at 15 to 45 mg/kg, ip qd treated for 14 days by H and E staining based analysis; assay type: organism-based; conditions: in vivo, 336 h, dose 15-45 mg/kg, time 14 day
HCT-116 [11] = test: Inhibition of colony formation in human HCT-116 cells incubated for 48 hrs followed by fresh media replacement without compound on every 72 hrs for 14 days by crystal violet staining based analysis; assay type: functional, cell-based; conditions: dose 0.3-1.2 µM
HCT-116 [12] = test: Induction of mitochondrial dysfunction in human HCT-116 cells at 0.3 to 1.2 uM by JC-1 dye based analysis; assay type: functional, cell-based; conditions: dose 0.3-1.2 µM
HCT-116 [13] = test: Induction of apoptosis in human HCT-116 cells assessed as decrease in p-p38 level by Western blot analysis; assay type: functional, cell-based; conditions: dose 0.3-1.2 µM
HCT-116 [14] = test: Induction of cell cycle arrest in human HCT-116 cells assessed as accumulation at G2 phase at 0.3 uM incubated for 48 hrs by PI staining based flow cytometry (reference value: 6.08 %); assay type: functional
HepG2 = test: Antiproliferative activity against human HepG2 cells assessed as inhibition of cell viability incubated for 48 hrs by CCK8 assay; assay type: functional, cell-based; conditions: HepG2, 48 h
HCT-116 [15] = test: Induction of cell cycle arrest in human HCT-116 cells assessed as accumulation at G2 phase at 1.2 uM incubated for 48 hrs by PI staining based flow cytometry (reference value: 6.08 %); assay type: functional
CT26 [16] = test: Antitumor activity against mouse CT26 cells implanted in BALB/c mouse assessed as reduction in tumor weight administered intraperitoneally once daily for 14 days; assay type: functional; conditions: dose 15-45 mg/kg, route ip, time 14.0 day
HCT-116 [17] = test: Induction of ER stress in human HCT-116 cells assessed as increase in ATF4 level at 0.3 to 1.2 uM by Western blot analysis; assay type: functional, cell-based; conditions: dose 0.3-1.2 µM
HCT-116 [18] = test: Effect on SET expression in human HCT-116 cells upto 6 uM incubated for 30 mins followed by pronase addition measured after 30 mins by DARTS assay; assay type: functional, cell-based
Homo sapiens = species: Homo sapiens; test: Disruption of PPIA/CD147 (unknown origin) interaction by Co-IP assay
HCT-116 [19] = test: Induction of apoptosis in human HCT-116 cells assessed as increase in Bax level at 1.2 uM in presence of NAC by Western blot analysis; assay type: functional, cell-based
HCT-116 [20] = test: Induction of intracellular ROS generation in human HCT-116 cells harboring siNC at 1.2 uM by flow cytometry (reference value: 8.22 %); assay type: functional
HCT-116 [21] = test: Induction of cell cycle arrest in human HCT-116 cells assessed as accumulation at G1 phase at 0.6 uM incubated for 48 hrs by PI staining based flow cytometry (reference value: 59.37 %); assay type: functional
HCT-116 [22] = test: Induction of apoptosis in human HCT-116 cells assessed as late apoptotic cells at 1.2 uM incubated for 48 hrs by Annexin V-FITC/PI staining based flow cytometry (reference value: 1.55 %); assay type: functional
HCT-116 [23] = test: Induction of apoptosis in human HCT-116 cells assessed as viable cells at 0.3 uM incubated for 48 hrs by Annexin V-FITC/PI staining based flow cytometry (reference value: 96.2 %); assay type: functional; conditions: read-out: Activity
HCT-116 [24] = test: Anti-proliferative activity against human HCT-116 cells harboring siPPIA-3 assessed as decrease in p-JNK level at 1.2 uM by Western blot analysis; assay type: functional, cell-based
HCT-116 [25] = test: Induction of DNA damage in human HCT-116 cells assessed as increase in gamma-H2AX level at 0.3 to 1.2 uM incubated for 48 hrs by Western blot analysis; assay type: functional, cell-based; conditions: dose 0.3-1.2 µM
HCT-116 [26] = test: Induction of apoptosis in human HCT-116 cells harboring siNC assessed as viable cells at 1.2 uM by Annexin V-FITC/PI staining based flow cytometry (reference value: 96.9 %); assay type: functional; conditions: read-out: Activity
HCT-116 [27] = test: Induction of cell cycle arrest in human HCT-116 cells assessed as accumulation at G1 phase at 0.3 uM incubated for 48 hrs by PI staining based flow cytometry (reference value: 59.37 %); assay type: functional
HeLa = test: Antiproliferative activity against human HeLa cells assessed as inhibition of cell viability incubated for 48 hrs by CCK8 assay; assay type: functional, cell-based
HCT-116 [28] = test: Anti-proliferative activity against human HCT-116 cells harboring siNC assessed as decrease in p-ERK1/2 level at 1.2 uM by Western blot analysis; assay type: functional, cell-based
HCT-116 [29] = test: Induction of cell cycle arrest in human HCT-116 cells assessed as accumulation at S phase at 0.6 uM incubated for 48 hrs by PI staining based flow cytometry (reference value: 34.55 %); assay type: functional
HCT-116 [30] = test: Induction of ER stress in human HCT-116 cells assessed as increase in PERK level at 0.3 to 1.2 uM by Western blot analysis; assay type: functional, cell-based; conditions: dose 0.3-1.2 µM
HCT-116 [31] = test: Anti-proliferative activity against human HCT-116 cells harboring siPPIA-3 assessed as decrease in p-p38 level at 1.2 uM by Western blot analysis; assay type: functional, cell-based
HCT-116 [32] = test: Induction of apoptosis in human HCT-116 cells harboring siPPIA-3 assessed as necrotic cells at 1.2 uM by Annexin V-FITC/PI staining based flow cytometry (reference value: 0.87 %); assay type: functional
HCT-116 [33] = test: Effect on NME1 expression in human HCT-116 cells upto 6 uM incubated for 30 mins followed by pronase addition measured after 30 mins by DARTS assay; assay type: functional, cell-based; conditions: time 60.0 min

C=C(C(=O)OC)N1c2nc(Cl)nc(Cl)c2N2C(c3ccccc3F)OC(C(=O)OCC)(C(=O)OCC)C12 (racemic)
Activity [1]: Non-toxic | half-life [2]: 4.78 h | Activity (HCT-116 [3]): 14.8% | Activity (HCT-116 [4]): 4.71% | Activity (HCT-116 [5]): 3.56% | inhibition (HCT-116 [6]): inactive | Activity (CT26 [7]): Active | Activity (HCT-116 [8]): No effect | Activity [9]: Non-toxic | Activity [10]: Non-toxic | inhibition (HCT-116 [11]): Dose-dependent-effect | Activity (HCT-116 [12]): Active | Activity (HCT-116 [13]): Dose-dependent-effect | Activity (HCT-116 [14]): 6.26% | IC50 (HepG2): 2160 nM | Activity (HCT-116 [15]): 2.78% | Activity (CT26 [16]): Dose-dependent-effect | Activity (HCT-116 [17]): Active | Activity (HCT-116 [18]): No effect | Activity (Homo sapiens): Active | Activity (HCT-116 [19]): inactive | Activity (HCT-116 [20]): 22.9% | Activity (HCT-116 [21]): 66.32% | Activity (HCT-116 [22]): 8.35% | viability at 0.3 µM (HCT-116 [23]): 82.9% | Activity (HCT-116 [24]): inactive | Activity (HCT-116 [25]): Active | viability at 1.2 µM (HCT-116 [26]): 77.8% | Activity (HCT-116 [27]): 65.85% | IC50 (HeLa): 690 nM | Activity (HCT-116 [28]): Active | Activity (HCT-116 [29]): 28.97% | Activity (HCT-116 [30]): Active | Activity (HCT-116 [31]): inactive | Activity (HCT-116 [32]): 1.09% | Activity (HCT-116 [33]): No effect
